Like-named read-outs stand apart in the source and are kept apart here.
What was measured:
[1] = biological target: T1, LAT1 (Mus musculus, UniProt Q9Z127); assay: Cis-inhibition of radiolabelled LAT1-probe substrate uptake into BV2 cells; format: cell-based; conditions: for IC50: 5 min, mean ± SD
Method: (§1) After removal of the culture medium, the BV2 cells were carefully washed with pre-warmed HBSS (Hank’s balanced salt solution) containing 125.0 mM choline chloride, 4.8 mM KCl, 1.2 mM MgSO4, 1.2 mM KH2PO4, 1.3 mM CaCl2, 5.6 mM glucose, and 25.0 mM HEPES (pH 7.4 adjusted with 1 M NaOH). Pre-incubation was done with 500 μL of pre-warmed HBSS at 37 °C for 10 min before adding substrates (250 μL in HBSS) for the uptake experiments.
The ability of compounds 1–15 to inhibit the uptake of a known LAT1 substrate [^14C]-L-leucine was then evaluated by incubating the cells at 37 °C for 5 min in uptake buffer pH 7.4 (250 μL) containing 0.2 µCi/mL of [^14C]-L-leucine, or 2 µCi/mL of [^3H]-L-methionine, [^3H]-L-tryptophan or [^3H]-L-kynurenine (PerkinElmer, Waltham, MA, USA) and 0.1–1000 μM of the studied compound (or HBSS as blank). After incubation, the uptake was stopped by adding 250 µL of ice-cold HBSS, and the cells were washed two times with ice-cold HBSS. The cells were then lysed with 500 μL of NaOH (0.1 M) for 60 min and the lysate was mixed with 3.5 mL of Emulsifier safe cocktail (Ultima Gold, PerkinElmer, Waltham, MA, USA). The radioactivity in the cells was measured by liquid scintillation counting (MicroBeta^2 counter, PerkinElmer Waltham, MA, USA). Half of the maximum inhibitory concentration (IC50) values were calculated by nonlinear regression analysis (fitting the curve to log (concentration) vs. remaining normalized […]).

[2] = biological target: T1, LAT1; assay: Inhibition type of [14C]-L-Leu uptake (Hanes-Woolf plots) in BV2 cells; format: cell-based; conditions: for Vmax of [14C]-L-Leu uptake: 0.010–0.20 µM [14C]-L-Leu in the presence of the compound at its IC50, mean ± SD, n = 3–4; for Vmax of [14C]-L-Leu uptake / Inhibition Type: BV2; for Inhibition Type: of [14C]-L-Leu uptake, concluded from Km and Vmax
Method: as §1
To evaluate the inhibition type of studied compounds, the BV2 cells were incubated with 0.010–0.20 μM [^14C]-L-leucine together with the studied compound. The concentration of compounds was selected according to the compound-specific IC50 values. The experiment was then carried out as described for the [^14C]-L-leucine uptake above and the radioactivity was measured by liquid scintillation counting. Hanes-Woolf plots were created by setting the ratio of initial substrate concentration to the reaction velocity ([S]/v) against [^14C]-L-leucine concentration (µM). The linear regression was used to calculate Km value (negative value of x-intercept) and Vmax value (1/slope) for [^14C]-L-leucine.

[3] = Time-dependent cellular uptake of compounds into BV2 cells (LC-MS/MS); format: cell-based, mouse; conditions: mouse, BV2 microglia cells, 100 µM compound, 1–60 min, mean ± SD, n = 3, read-out: T½ of cellular uptake
Method: (§2) For the time-dependent cellular uptake experiments, the BV2 cells on 24-well plates were incubated with studied compounds (100 μM) in a pre-warmed HBSS buffer (250 μL) at 37 °C for 1–60 min. Subsequently, the cells were washed three times with an ice-cold HBSS and lysed with 250 μL of NaOH (0.1 M) for 60 min. The lysates were diluted with acetonitrile (ACN) including the selected internal standard (diclofenac to all compounds) with a ratio of 1:3 and centrifuged at 10,000× g for 10 min. The samples were analyzed by the liquid chromatography-tandem mass spectrometric (LC-MS/MS) methods as described below. The concentrations of each compound in cell lysates were calculated from the standard curve that was prepared by spiking known amounts of compounds to ACN including the selected internal standard and then normalized with protein concentration. The protein concentrations on each plate were determined as a mean of three samples by Bio-Rad Protein Assay, based on the Bradford dye-binding method, using bovine serum albumin (BSA) as a standard protein and measuring the absorbance (595 nm) by multiplate reader (EnVision, Perkin Elmer, Inc., Waltham, MA, USA).
(§3) The studied compounds (1–15) were analyzed by using Agilent 1200 Series Rapid Resolution LC System together with an Agilent 6410 Triple Quadrupole Mass Spectrometer equipped with an electrospray ionization source (Agilent Technologies, Santa Clara, CA, USA). The chromatographic separations of analytes were achieved by using a reversed-phase Zobrax SB-C18 column (50 mm × 2.1 mm, 1.8 μm; Agilent Technologies, Santa Clara, CA, USA) by eluting the samples with 0.1% formic acid in water (A) and 0.1% formic in ACN (B). Labetalol and diclofenac were used as internal standards (ISTD) for the prodrugs and parent drugs, respectively. The transitions used for the quantification at the positive ion mode and chromatographic conditions of each compound and their parent drugs are listed in Table S1. The methods of compounds 1–11 have been reported earlier, while the methods of compounds 12–15 are reported herein for the first time.

[4] = system: immortalized mouse microglia (BV2); assay: as above; format: cell-based; conditions: for Max. cellular uptake: 100 µM compound, 1–60 min, mean ± SD, n = 3
Method: as §2, §3

[5] = biological target: T1, LAT1; assay: Concentration-dependent cellular uptake into BV2 cells, Eadie–Hofstee analysis, Transport Type 1 (LAT1); format: cell-based; conditions: 1–200 µM, 30 min, BV2; Eadie–Hofstee; mean ± SD, n = 3
Method: (§4) For the concentration-dependent cellular uptake experiments, the BV2 cells on 24-well plates were incubated with studied compounds (1–200 μM) in pre-warmed HBSS buffer (250 μL) at 37 °C for 30 min. The experiment was then carried out as described for the time-dependent uptake above and the concentration of studied compounds in the cell lysate was analyzed by the LC-MS/MS methods described above and the results were normalized to the total protein concentration. The distinct transport mechanisms were separated from the Michaelis-Menten kinetics by using Eadie–Hofstee plot.
as §3

[6] = system: Transport Type 2; assay: Concentration-dependent cellular uptake into BV2 cells, Eadie–Hofstee analysis, Transport Type 2; format: cell-based, mouse; conditions: 1–200 µM, 30 min, mean ± SD, n = 3
Method: as §4, §3

[7] = biological target: T1, LAT1; assay: Cellular uptake of compounds in the presence of LAT1-inhibitor (KMH-233); format: cell-based; conditions: 100 µM compound, 100 µM KMH-233, 30 min, BV2
Method: The competitive uptake in the presence of LAT1-inhibitor (KMH-233) was carried out as described above with HBSS buffer solution containing 100 µM of the studied compounds. The cells were pre-incubated with 100 µM LAT1-inhibitor for 10 min and the incubation mixture was removed before adding the studied compound and LAT1-inhibitor on the cells. The competitive uptake (30 min) with the inhibitor was then carried out as the normal uptake described above. The amounts of studied compounds were analyzed by the LC-MS method and calculated from the spiked standard curve and normalized with the protein concentrations.

[8] = biological target: T1, LAT1; assay: Cellular uptake of L-leucine after pre-incubation of BV2 cells with the compounds; format: cell-based; conditions: 100 µM (L-glutamine 2 mM) pre-incubated 10 min or 3 h, L-leucine 1–400 µM, 5 min
Method: The ability of compounds 1–15 to affect the uptake of a known LAT1 substrate L-leucine was evaluated by pre-incubating the BV2 cells at 37 °C for 10 min or 3 h with uptake buffer pH 7.4 (250 μL) containing 100 µM of compounds 1–15 or thyroxin (T4), or known nuclear receptor inducible compounds, phenobarbital (constitutive androstane receptor, CAR), and dexamethasone (pregnane X receptor, PXR) as controls. […] After incubation, the reaction was stopped by adding 250 µL of ice-cold HBSS, and the cells were washed two times with ice-cold HBSS. The cells were then lysed with 500 μL of 0.1 M NaOH (60 min) and the lysate was mixed with 3.5 mL of Emulsifier safe cocktail (Ultima Gold, PerkinElmer, Waltham, MA, USA). The radioactivity in the cells was measured by liquid scintillation counting (MicroBeta^2 counter, PerkinElmer Waltham, MA, USA). The results were multiplied by the amount of un-labeled proportion of L-leucine in each sample.

[9] = biological target: T1, LAT1; parameters: method as in earlier work; conditions: BV2 cells; probe [14C]-L-Leu; mean ± SD; published earlier; ref [31] or [33]; read-out: IC50 of [14C]-L-Leu uptake; cited from earlier work
[10] = system: LAT1; assay: Quantitative expression of LAT1 on the BV2 plasma membrane (LC-MS proteomics); format: cell-based, mouse; conditions: BV2 cells incubated 24 h; normalized to Na+/K+ATPase; compared to untreated control
Method: The protein expression levels of LAT1, in the plasma membrane fractions of BV2 cells were quantified using multiplexed MRM analysis according to the protocol described by Uchida et al.. First, the crude membrane fractions were isolated from three distinct sets of cell culture plates using Membrane Protein Extraction Kit (BioVision Incorporated, Milpitas, CA, USA) according to the manufacturer’s instructions. The protein content for each fraction was measured by Bio-Rad Protein Assay, based on the Bradford dye-binding method (EnVision, Perkin Elmer, Inc., Waltham, MA, USA). A total amount of 50 µg protein from each fraction was solubilized/denatured in 7 M guanidine hydrochloride, 0.5 M Tris-HCl and 10 mM EDTA-Na. The proteins were then reduced by dithiothreitol (1:50, w/w) and S-carboxymethylated by iodoacetamide (1:20, w/w). The alkylated proteins were precipitated by methanol/chloroform/water (4:1:3) and centrifuged at 18,000× g for 5 min at 4 °C. The pellet was resuspended in 6 M urea and mixed for 10 min at room temperature before the dilution with 0.1 M Tris-HCl (pH 8.5) to a final concentration of 1.2 M urea, and dissolved completely by intermittent sonication (Branson 3510, Danbury, CT, USA). The dissolved proteins were first digested with LysC (1/100, w/w) and 0.05% ProteaseMax (Promega Biotech AB, Nacka, Sweden) for 3 h at room temperature. Then, the samples were spiked with 10 µL (30 fmol) of the labelled peptides for absolute quantification (JPT Peptide Technologies GmbH, Berlin, Germany) (Table S2). The samples were incubated with (1/100, w/w) TPCK-Trypsin (Promega Biotech AB, Nacka, Sweden) for 18 h at 37 °C. The tryptic digestion was then quenched by adding 40 µL of 5% formic acid. The samples were then centrifuged at 18,000× g for 5 min at 4 °C, and the supernatants were transferred to vials for analysis.
The digested peptides were analyzed using an ultra-performance liquid chromatography system coupled with a triple quadrupole mass spectrometer with a heated electrospray ionization source in the positive mode (UPLC 1290 and MSD 6495, Agilent Technologies, Santa Clara, CA, USA). A total amount of 20 µL of the digested peptides (10 µg) was separated using AdvanceBio Peptide Map 2.1 × 250 mm, 2.7 μm column (Agilent Technologies, Santa Clara, CA, USA) and LC eluents of 0.1% formic acid in water (A) and acetonitrile (B). The peptides were eluted following a constant flow rate of 0.3 mL/min and a gradient of 2–7% B for 2 min, followed by 7–30% B for 48 min, 30–45% B for 3 min, and 45–80% B for 2.5 min before re-equilibrating the column again for 4.5 min. LAT1 was quantified based on the ratio between the light and heavy standard peptides, as described previously (Table S2). Data was acquired using Agilent MassHunter Workstation Acquisition (Agilent Technologies, Data Acquisition for Triple Quadrupole, version B.03.01) and processed by using Skyline software (version 20.1). The results were normalized to a housekeeping protein Na+/K+ATPase and expressed as fmol/µg of the total amount of protein in the samples.

[11] = probe [3H]-L-Kynu, n = 3–4, read-out: IC50 of [3H]-L-Kynu uptake
[12] = probe [3H]-L-Met, n = 3–4, read-out: IC50 of [3H]-L-Met uptake
[13] = probe [3H]-L-Trp, n = 3–4, read-out: IC50 of [3H]-L-Trp uptake

T1 sequence (Q9Z127 whole entry): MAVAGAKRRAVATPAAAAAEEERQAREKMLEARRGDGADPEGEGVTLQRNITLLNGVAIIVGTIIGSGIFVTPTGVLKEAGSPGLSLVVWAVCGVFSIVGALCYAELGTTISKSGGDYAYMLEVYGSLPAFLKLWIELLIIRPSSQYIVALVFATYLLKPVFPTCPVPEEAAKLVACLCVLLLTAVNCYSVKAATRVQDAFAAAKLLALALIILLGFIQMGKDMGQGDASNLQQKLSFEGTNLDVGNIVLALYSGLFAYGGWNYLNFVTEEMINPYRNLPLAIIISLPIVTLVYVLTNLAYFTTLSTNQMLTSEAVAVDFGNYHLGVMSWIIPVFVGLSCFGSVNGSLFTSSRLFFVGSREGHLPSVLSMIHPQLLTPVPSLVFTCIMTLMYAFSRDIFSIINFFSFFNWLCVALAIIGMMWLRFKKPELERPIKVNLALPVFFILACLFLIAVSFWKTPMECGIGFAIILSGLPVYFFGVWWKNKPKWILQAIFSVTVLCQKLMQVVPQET
T1 sequence (P10852 whole entry partner): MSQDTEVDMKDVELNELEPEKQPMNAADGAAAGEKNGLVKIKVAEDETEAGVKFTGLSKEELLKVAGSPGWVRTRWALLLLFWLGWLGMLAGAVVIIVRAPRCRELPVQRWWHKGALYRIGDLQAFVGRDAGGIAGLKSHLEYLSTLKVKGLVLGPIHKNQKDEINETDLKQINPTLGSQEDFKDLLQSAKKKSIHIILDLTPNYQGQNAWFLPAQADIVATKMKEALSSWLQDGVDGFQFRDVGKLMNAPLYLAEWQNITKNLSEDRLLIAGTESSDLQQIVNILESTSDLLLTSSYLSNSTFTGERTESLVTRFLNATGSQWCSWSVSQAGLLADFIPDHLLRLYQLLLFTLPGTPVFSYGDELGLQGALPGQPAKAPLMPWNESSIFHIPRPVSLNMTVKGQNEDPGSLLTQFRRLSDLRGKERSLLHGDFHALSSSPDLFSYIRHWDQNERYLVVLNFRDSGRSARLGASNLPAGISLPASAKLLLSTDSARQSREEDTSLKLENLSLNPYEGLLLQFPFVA

SMILES	Inhibition of LAT1-probe substrate uptake / LAT1 affinity ([1]; over all probe substrates)	IC50 [1, 11]	IC50 [1, 12]	IC50 [1, 13]	IC50 ([1]; probe [14C]-L-Leu, n = 3–4, read-out: IC50 of [14C]-L-Leu uptake)	Vmax of [14C]-L-Leu uptake [2]	Inhibition Type [2]	half-life at 100 μM [3]	Max. cellular uptake [4]	Km [5]	Transport Type 1 (LAT1) Vmax [5]	Km [6]	Transport Type 2 Vmax [6]	Cellular uptake in the presence of LAT1-inhibitor [7]	Effect on cellular uptake of L-Leu after pre-incubation [8]	IC50 ([2]; Table 2, compound concentration used in the inhibition type study, corresponding to IC50 of [14C]-L-Leu uptake)	LAT1-substrate or LAT1-binder ([4]; concluded from time-dependent uptake, 100 µM)	IC50 [9]	LAT1 expression on the plasma membrane [10]
COc1cc(/C=C/C(=O)Nc2cccc(C[C@H](N)C(=O)O)c2)ccc1O [Compound 6]	not able to inhibit the LAT1-probe substrate uptake very effectively	54.3 ± 1.3 µM	> 100 µM	> 100 µM	> 100 µM	3.224 ± 0.077 nmol/min/mg	Non-competitive	9.38 ± 2.33 min	1.11 ± 0.09 nmol/mg of protein	3.6 ± 0.4 µM	0.11 ± 0.01 pmol/mg/min	78 ± 16 µM	0.26 ± 0.02 pmol/mg/min	inhibited significantly	induced the uptake of L-Leu	–	–	–	–
COc1ccc2cc([C@H](C)C(=O)Nc3cccc(C[C@H](N)C(=O)O)c3)ccc2c1 [Compound 11]	–	1.8 ± 1.2 µM	10.4 ± 1.5 µM	14 ± 1.2 µM	–	1.515 ± 0.125 nmol/min/mg	Non-competitive	–	4.48 ± 0.37 nmol/mg of protein	2.6 ± 1.2 µM	53 ± 8 pmol/mg/min	–	–	only reductive trends were seen	–	10 µM	LAT1-binders rather than substrates	9 ± 1.1 µM	–
N[C@@H](Cc1cc(I)c(Oc2cc(I)c(O)c(I)c2)c(I)c1)C(=O)O [Compound T4, thyroxin, reference compound]	–	–	–	–	–	–	–	–	–	–	–	–	–	–	induced the uptake of L-Leu	–	–	–	downregulated LAT1 expression
